Source: US20190216725A1, “DRUG DELIVERY SYSTEM FOR THE DELIVERY OF INTEGRASE INHIBITORS” (MERCK SHARP & DOHME CORP., priority 2016, published 2019)

Assay: maximum solubility in PBS + solutol
Type: physicochemical
Conditions: aqueous with cosolvent or surfactant or cyclodextrin

| solubility (in PBS+2 wt % solutol) | solubility (in PBS+5 wt % solutol) | SMILES |
| --- | --- | --- |
| 310 µg/mL |  | CCN1C[C@@H]2C[C@@H](OC)c3c(C(=O)NCc4ccc(F)cc4F)c(=O)c(O)c(n32)C1=O [active ingredient 2, (3aS,5R)-N-(2,4-difluorobenzyl)-2-ethyl-8-hydroxy-5-methoxy-1,7-dioxo-2,3,3a,4,5,7-hexahydro-1H-pyrazino[2,1,6-cd]indolizine-6-carboxamide] |
| 150 µg/mL | 260 µg/mL | C[C@]12CCCO[C@H]1Cn1cc(C(=O)NCc3ccc(F)cc3F)c(=O)c(O)c1C2=O [active ingredient 1, (4aS,11aR)-N-(2,4-difluorobenzyl)-6-hydroxy-4a-methyl-5,7-dioxo-2,3,4,4a,5,7,11,11a-octahydropyrano[3,2-b]quinolizine-8-carboxamide] |
